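Exposure lasted 48 hours, with cells grown in 96-well plates and compounds tested at five concentrations. GI50 is the concentration that inhibits growth by half. TGI is the concentration that stops growth completely.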
Assays:
Assay in all cases: inhibition of tumour cell growth, NCI panel, 48 h
A549 NSCLC = test system: A549 NSCLC
COLO 205 colon = test system: COLO 205 colon
MALME-3M melanoma = test system: MALME-3M melanoma
MDA-MB-231 breast = test system: MDA-MB-231 breast
OVCAR-4 ovarian = test system: OVCAR-4 ovarian
RPMI-8226 leukemia = test system: RPMI-8226 leukemia
RXF 393 renal = test system: RXF 393 renal
SNB-75 CNS = test system: SNB-75 CNS
T-47D breast = test system: T-47D breast
SR leukemia = test system: SR leukemia

| Compound | GI50 (A549 NSCLC) | TGI (A549 NSCLC) | GI50 (COLO 205 colon) | TGI (COLO 205 colon) | GI50 (MALME-3M melanoma) | TGI (MALME-3M melanoma) | GI50 (MDA-MB-231 breast) | TGI (MDA-MB-231 breast) | GI50 (OVCAR-4 ovarian) | TGI (OVCAR-4 ovarian) | GI50 (RPMI-8226 leukemia) | TGI (RPMI-8226 leukemia) | GI50 (RXF 393 renal) | TGI (RXF 393 renal) | GI50 (SNB-75 CNS) | TGI (SNB-75 CNS) | GI50 (T-47D breast) | TGI (T-47D breast) | TGI (SR leukemia) | GI50 (SR leukemia) |
| --- | --- | --- | --- | --- | --- | --- | --- | --- | --- | --- | --- | --- | --- | --- | --- | --- | --- | --- | --- | --- |
| COc1ccc(/C=C2/N=C(c3ccccc3)N(c3c(C)n(C)n(-c4ccccc4)c3=O)C2=O)cc1OC | > 100 µM | > 100 µM | > 100000 nM | > 100 µM | > 100 µM | > 100 µM | > 100000 nM | > 100 µM | > 100000 nM | > 100 µM | > 100000 nM | > 100 µM | > 100000 nM | > 100 µM | 86.4 µM | > 100 µM | 77500 nM | > 100 µM | – | – |
| COc1cc2c(cc1OCCCNC(=O)c1cccc3c(=O)c4ccccc4[nH]c13)N=C[C@@H]1CCCN1C2=O | 0.0202 µM | > 100 µM | < 10 nM | 0.0437 µM | – | 0.388 µM | < 10 nM | < 0.0484 µM | < 10 nM | 10.8 µM | – | – | 86.5 nM | 0.301 µM | – | – | < 10 nM | 29.6 µM | > 45.4 µM | – |
| CCOc1ccc(NC(=O)C(=O)CC(=O)c2c(C)n([O-])c3ccccc3[n+]2=O)cc1 | – | > 100 µM | – | > 100 µM | – | > 100 µM | – | – | – | > 100 µM | – | > 100 µM | – | > 100 µM | – | > 100 µM | – | – | > 100 µM | – |
| O=C1/C(=C/c2ccc(Cl)cc2)CCC1CCN1CCOCC1 (centres undefined) | – | > 100 µM | – | – | – | > 100 µM | – | – | – | > 100 µM | – | 64.4 µM | – | > 100 µM | – | > 100 µM | – | – | > 100 µM | – |
| COc1cccc2c1C(=O)c1c(O)c3c(c(O)c1C2=O)C[C@](O)(C(=O)CO)C[C@H]3O[C@@H]1C[C@@H](NC(=O)CCCCCN(C)C2(c3ccc(F)cc3)CC3CCC2C3)[C@H](O)[C@@H](C)O1 (some centres undefined) | – | – | 728 nM | 1.65 µM | 7.85 µM | 16.9 µM | 1000 nM | 2.63 µM | 1090 nM | 2.69 µM | 899 nM | 2.25 µM | 2710 nM | 10.5 µM | 3.28 µM | 11.2 µM | – | – | 1.64 µM | 223 nM |
| O=C1C=CC(=O)c2cc3cc(CBr)ccc3cc21 | 9.07 µM | – | 4190 nM | 28.7 µM | 3.1 µM | 29.3 µM | 1950 nM | 8.09 µM | – | – | – | – | 11000 nM | 27.9 µM | 21.5 µM | 98.1 µM | 2120 nM | > 26.2 µM | 0.0923 µM | 37.1 nM |
| C1CN2CCN3CCN4CCN1[P+]243 | – | > 100 µM | – | > 100 µM | – | > 100 µM | – | – | – | > 100 µM | – | > 100 µM | – | > 100 µM | – | > 100 µM | – | – | > 100 µM | – |
| COC(=O)C(Cc1nc2ccc(Cl)cc2[nH]c1=O)/C(=N\N)C(=O)Nc1cc(C)c(Cl)cc1S(=O)(=O)O (centres undefined) | – | > 100 µM | – | > 100 µM | – | > 100 µM | – | – | – | > 100 µM | – | > 100 µM | – | – | – | – | – | – | > 100 µM | – |
| CCOc1ccc(NC(=O)CC#N)cc1 | – | > 100 µM | – | > 100 µM | – | > 100 µM | – | – | – | > 100 µM | – | – | – | > 100 µM | – | > 100 µM | – | – | > 100 µM | – |
